Literature values, collected in patent US20150196488A1, “Topical Foam Composition” (priority 2009, published 2015).

Conditions: alcohol, ethyl acetate, chloroform and toluene

Q: With CO[C@H]1/C=C/O[C@@]2(C)Oc3c(C)c(O)c4c(O)c(c5c(nc6cc(C)ccn65)c4c3C2=O)NC(=O)/C(C)=C\C=C\[C@H](C)[C@H](O)[C@@H](C)[C@@H](O)[C@@H](C)[C@H](OC(C)=O)[C@@H]1C [Rifaximin, (2S,16Z,18E,20S,21S,22R,23R,24R,25S,26S,27S,28E)-5,6,21,23,25-pentahydroxy-27-methoxy-2,4,11,16,20,22,24,26-octamethyl-2,7-(epoxypentadeca-[1,11,13]trienimino)benzofuro[4,5-e]pyrido[1,2-a]-benzimida-zole-1,15(2H)-dione,25-acetate] as the molecule, how does the “solubility in organic solvents” value read?
A: soluble
